We go through 6 compounds from US9107942B2, “Methods of diagnosing and treating fibrosis” (University of Rochester, priority 2008, dated 2015).

Entries after “also recorded” stand apart in the source; their conditions may differ.

The subject of test [1] is YY1 expression. Description: YY1 immunoblot in TGF-β-stimulated WI-38 cells pre-treated with NF-κB inhibitor. Type of test: cell-based, human. The conditions noted are these: WI-38 cells pre-treated with 5 μM for one hour, then 10 ng/ml TGF-β in serum-free DMEM. The method, then: FIG. 12A is a graph of the relative fold induction of YY1 mRNA expression in WI-38 cells transfected with a wild-type YY1 promoter construct (“YY1”). FIG. 12B is a graph of the relative fold induction of YY1 mRNA expression in WI-38 cells transfected with a mutant YY1 promoter contruct that has a disrupted NF-κB binding site (“mutant YY1”). In both cases, the cells were also transiently co-transfected with a vector control (“pSG5”) or 2.5 μg of NF-κB (“p65”) plasmid by electroporation, and then treated with PBS or 10 ng/ml of TGF-β for 24 hours. Data are presented with standard errors derived from at least three independent experiments performed in triplicate. ***P<0.001 (untreated pSG5 vs. untreated p65; TGF-β-treated pSG5 vs. TGF-β-treated p65). FIG. 12C is an immunoblot of WI-38 cells pre-treated with 5 μM of Bay 11-7085 (an NF-κB inhibitor) for one hour and then treated with 10 ng/ml of TGF-β for the indicated times in serum-free DMEM. Extracts from whole cells were immunoblotted with anti-YY1 or anti-β-actin antibody.
(§1) Cells or lung tissues were solubilized in lysis buffer (50 mM Tris/HCl (pH 8.0), 150 mM NaCl, 0.1% SDS, 0.5% sodium deoxycholate, 0.02% Na3N, 1% Nonidet P40, 1 mM PMSF, and 2 μg/ml aprotinin). Protein concentrations were determined by a BCA assay. Protein samples (20 μg) were separated in 8-16% SDS/PAGE gels and transferred onto a nitrocellulose membrane. […]
Background: In western blotting, separated proteins are transferred to a membrane and probed.

The next test has as its system lung fibroblasts. The conditions noted are these: cited from earlier work.
A further test relates to human tumor cells. The settings on record: cited from earlier work.
Test [2] relates to YY1 expression. The test can be described thus: YY1 expression in stimulated WI-38 lung fibroblasts (immunoblot, quantitative PCR). The conditions noted are these: WI-38 cells; for YY1 transcript levels: quantitative PCR. It is filed as cell-based, human. The method, then: (§2) FIGS. 7A and 7B are immunoblots of human WI-38 cells (FIG. 7A) and mouse MLg2908 cells (FIG. 7B) treated with TGF-β. After serum starvation for 24 hours, cells were treated with 10 ng/ml of TGF-β for the indicated times in serum-free DMEM. Extracts from whole cells were subjected to immunoblot analysis with anti-YY1 or anti-β-actin antibody. FIGS. 7C and 7D are graphs showing the relative fold induction of YY-1 mRNA expression, detected by quantitative PCR, in WI-38 cells (FIG. 7C) and MLg2908 cells (FIG. 7D) treated with TGF-β. FIGS. 7E and 7F are graphs relating to the YY1 promoter activity in YY1-Luc-transfected WI-38 cells (FIG. 7E) and YY1-Luc-transfected MLg2908 cells (FIG. 7F) treated with PBS or TGF-β for 24 hours. The full-length YY1 promoter-luciferase reporter (YY1-LUC) was transfected into the cells by electroporation. Relative light units (RLU) were measured with a luminometer. Fold changes result from the RLU of stimulated cells divided by the RLU of non-stimulated cells. The data are presented with standard errors derived from at least three independent experiments performed in triplicate. *p<0.05 and **p<0.01 by the Student's t-test.
(§3) FIGS. 9A and 9B are immunoblots of human WI-38 cells (FIG. 9A) and mouse MLg2908 cells (FIG. 9B) treated with TNF-α. After serum starvation for 24 hours, cells were treated with 10 ng/ml of TNF-α for the indicated times in serum-free DMEM. Extracts from whole cells were subjected to immunoblot analysis with anti-YY1 or anti-β-actin antibody. FIGS. 9C and 9D are graphs showing the relative fold induction of YY-1 mRNA expression, detected by quantitative PCR, in WI-38 cells (FIG. 9C) and MLg2908 cells (FIG. 9D) treated with TGF-β. FIGS. 9E and 9F are graphs relating to the YY1 promoter activity in YY1-Luc-transfected WI-38 cells (FIG. 9E) and YY1-Luc-transfected MLg2908 cells (FIG. 9F) treated with TNF-α for 8 hours. The full-length YY1 promoter-luciferase reporter (YY1-LUC) was transfected into the cells by electroporation. Relative light units (RLU) were measured with a luminometer. Fold changes result from the RLU of stimulated cells divided by the RLU of non-stimulated cells. The data are presented with standard errors derived from at least three independent experiments performed in triplicate. *p<0.05, **p<0.01, and ***p<0.001 by the Student's t-test.
After serum starvation for 24 hours, cells were treated with 40 μg/ml of silica for the indicated time periods in serum-free DMEM. Extracts from WI-38 (FIG. 10A) or MLg2908 (FIG. 10B) cells were immunoblotted with anti-YY1 or anti-β-actin antibodies.
FIG. 18 is an immunoblot showing YYI in WI-38 cells that were unstimulated (“Resting”) or treated with IL-1β ([…]). Immunoblots were performed on Day 1 and Day 2 using anti-YY1 and anti-GAPDH antibodies.
Total RNA from lung tissue and lung fibroblasts was extracted using TRIzol® reagent (Invitrogen). Then, 0.5-1 μg of total RNA was reverse-transcribed using oligo dT as a primer. Quantitative PCR was performed using an iQ5 Biorad device. Data were analyzed by the 2^−Δ(Δ/CT^) method and normalized to the expression of the GAPDH housekeeping gene.
as §1

Another test deals with B cells. The settings on record: cited from earlier work.
Test [3] has as its system YY1 promoter. The test can be described thus: YY1 promoter-luciferase reporter (YY1-LUC) in WI-38 cells. The settings on record: YY1-Luc-transfected WI-38 cells. Type of test: cell-based, human. The method, then:
as §2, with “The data are presented with standard errors derived from at least three independent experiments performed in triplicate. *p<0.05 and **p<0.01 by the Student's t-test.” left out
(§4) FIGS. 9A and 9B are immunoblots of human WI-38 cells (FIG. 9A) and mouse MLg2908 cells (FIG. 9B) treated with TNF-α. […] FIGS. 9C and 9D are graphs showing the relative fold induction of YY-1 mRNA expression, detected by quantitative PCR, in WI-38 cells (FIG. 9C) and MLg2908 cells (FIG. 9D) treated with TGF-β. […] Relative light units (RLU) were measured with a luminometer. […]
(Reporter assays use an easily measured gene product as a stand-in for the process of interest.)

The subject of test [4] is YY1 promoter. The test can be described thus: YY1 promoter-luciferase reporter (YY1-LUC) in MLg2908 cells. Type of test: cell-based, mouse. The settings on record: YY1-Luc-transfected MLg2908 cells. As for the experimental part:
as §2, with “The data are presented with standard errors derived from at least three independent experiments performed in triplicate. *p<0.05 and **p<0.01 by the Student's t-test.” left out
as §4

For test [5], the system named is YY1 promoter. The test can be described thus: YY1 promoter-luciferase reporter (YY1-LUC) in MRC5 cells. The conditions noted are these: YY1-LUC-transfected MRC5 cells, 24 hours. Type of test: cell-based, human. The method, then:
(§5) FIG. 8A is an immunoblot of whole cell extracts from MRC5 cells treated with TGF-β for 8 hours. FIG. 8B is a graph of the relative light units of YY1-Lluc-transfected MRC5 cells treated with phosphate-buffered saline (“0”) or TGF-β (“10”) for 24 hours. The data are presented with standard errors derived from at least three independent experiments performed in triplicate. *p<0.05 by the Student's t-test.
(§6) After serum starvation for 24 hours, MRC5 cells were treated with 10 ng/ml of TGF-β for 8 hours or 24 hours in serum-free DMEM. Extracts from whole cells treated with TGF-β for 8 hours were subjected to immunoblot analysis with anti-YY1 or anti-β-actin antibody. […] MRC5 cells transfected with the full-length YY1 promoter-luciferase reporter (YY1-LUC) by electroporation were treated with PBS or TGFβ for 24 hours, and the relative light units (RLU) were measured with a luminometer.

Test [6] relates to YY1 expression. The test can be described thus: YY1 expression in stimulated MLg2908 lung fibroblasts (immunoblot, quantitative PCR). Type of test: cell-based, mouse. The conditions noted are these: MLg2908 cells; for YY1 transcript levels: quantitative PCR; for YY1 expression: serum-free DMEM, 10 ng/ml cytokine or 40 μg/ml silica, immunoblot. As for the experimental part: as §2
as §3, with “The data are presented with standard errors derived from at least three independent experiments performed in triplicate. *p<0.05, **p<0.01, and ***p<0.001 by the Student's t-test.” left out
Total RNA from lung tissue and lung fibroblasts was extracted using TRIzol® reagent (Invitrogen). […] Quantitative PCR was performed using an iQ5 Biorad device. Data were analyzed by the 2^−Δ(Δ/CT^) method and normalized to the expression of the GAPDH housekeeping gene.
Cells or lung tissues were solubilized in lysis buffer (50 mM Tris/HCl (pH 8.0), 150 mM NaCl, 0.1% SDS, 0.5% sodium deoxycholate, 0.02% Na3N, 1% Nonidet P40, 1 mM PMSF, and 2 μg/ml aprotinin). Protein concentrations were determined by a BCA assay. […]

Test [7] concerns YY1 expression. Description: YY1 immunoblot in MRC5 human adult fibroblasts. Type of test: cell-based. The settings on record: MRC5 cells, 10 ng/ml for 8 hours. The method, then:
as §5, §6

Test [8] deals with YY1 expression. Description: YY1 western blot in IC-21 alveolar macrophages. Type of test: cell-based. The settings on record: TNF-α 10 ng/ml or silica 20 μg/ml, two days. As for the experimental part:
FIG. 11 is a western blot of unstimulated (“resting”) IC-21 alveolar macrophages or IC-21 cells stimulated with TNF-α (10 ng/ml) or silica (20 μg/ml). After two days, the cells were harvested and YY1 expression was determined using anti-YY1 and anti-GAPDH antibodies.
In addition to the indirect effects of lung inflammation, crystalline silica can activate cells directly through distinct molecular pathways (Hornung et al., “Silica Crystals and Aluminum Salts Activate the NALP3 Inflammasome Through Phagosomal Destabilization,” Nat. Immunol. 9(8):847-56 (2008); Dostert et al., “Innate Immune Activation Through Nalp3 Inflammasome Sensing of Asbestos and Silica,” Science 320(5876):674-77 (2008), each of which is hereby incorporated by reference in its entirety). Therefore, whether silica particles directly regulate YY1 expression in fibroblasts was tested by incubating cells for up to 8 hours in vitro with a fixed concentration of silica.

Where [9] appears, read: serum-free DMEM, 10 ng/ml cytokine or 40 μg/ml silica, immunoblot.

As for `CC(C)(C)c1ccc(S(=O)(=O)/C=C/C#N)cc1` [Bay11-7085], in the test with YY1 expression [1], the YY1 expression entry is on record as “abolished”.

For the compound `[N]=O` [Nitric oxide], the YY1 expression entry in the test with lung fibroblasts and in the test on human tumor cells was “inhibit” in each case.

“IL-1β: cytokine used to treat WI-38 cells”: the YY1 expression result in the test with YY1 expression [2] (Day 1 and Day 2, immunoblot) is on record as “upregulated”.

Regarding “Rituximab: anti-CD20 antibody used for treating B cell non-Hodgkin's lymphoma”, in the test with B cells, the NF-κB expression entry is “diminished” and the YY1 expression entry is given as “diminished”.

“TGF-β: profibrotic cytokine used to stimulate lung fibroblasts”: the YY1 promoter activity entry in the test with YY1 promoter [3] and in the test on YY1 promoter [4] was “significantly increased” throughout. Besides, the YY1-LUC activity entry in the test with YY1 promoter [5] is given as “up-regulated”. For the same compound, the YY1 transcript levels result with YY1 expression [6] and in the test with YY1 expression [2] was “upregulated” each time. Besides, the YY1 expression result with YY1 expression [6] is on record as “upregulated”; in the test on YY1 expression [7], “up-regulated”; in the test on YY1 expression [2] (setting [9]), “upregulated”.

With TNF-α, the YY1 expression entry with YY1 expression [8] is given as “neither silica nor TNF-α affected; also recorded: slightly decreased”; with YY1 expression [6] it was “increased”; in the test on YY1 expression [2] (setting [9]), “increased”. Moreover, the YY1 promoter activity entry in the test on YY1 promoter [3] and in the test with YY1 promoter [4] was “upregulated” throughout. Besides, the YY1 transcript levels entry in the test with YY1 expression [6] and with YY1 expression [2] was “upregulated” in each case.
